29 molecules from ChEMBL document CHEMBL4390667, “Novel tacrine-tryptophan hybrids: Multi-target directed ligands as potential treatment for Alzheimer's disease” (Eur J Med Chem, 2019) can be followed below.

The IC50 is the concentration at which inhibition is half-maximal. Read a high IC50 as lower potency.

Some targets named below: Nitric oxide synthase 1 (Rattus norvegicus, UniProt P29476); Cholinesterase (Homo sapiens, UniProt P06276); Acetylcholinesterase (Homo sapiens, UniProt P22303).
The subject of a further data set is CHO-K1. Nature of the data set: cells. The conditions noted are these: Cricetulus griseus, CHO-K1, 24 h.
For data set [1] the following is noted: pampa, pH 7.4, 100 µM.
Description: Effective permeability of the compound in PBS buffer at pH 7.4 at 100 uM after 3 to 6 hrs by PAMPA
The next data set deals with HepG2. Nature of the data set: cells. The conditions noted are these: Homo sapiens, HepG2, 24 h.

Sequence of Nitric oxide synthase 1 (P29476 whole entry, looked up): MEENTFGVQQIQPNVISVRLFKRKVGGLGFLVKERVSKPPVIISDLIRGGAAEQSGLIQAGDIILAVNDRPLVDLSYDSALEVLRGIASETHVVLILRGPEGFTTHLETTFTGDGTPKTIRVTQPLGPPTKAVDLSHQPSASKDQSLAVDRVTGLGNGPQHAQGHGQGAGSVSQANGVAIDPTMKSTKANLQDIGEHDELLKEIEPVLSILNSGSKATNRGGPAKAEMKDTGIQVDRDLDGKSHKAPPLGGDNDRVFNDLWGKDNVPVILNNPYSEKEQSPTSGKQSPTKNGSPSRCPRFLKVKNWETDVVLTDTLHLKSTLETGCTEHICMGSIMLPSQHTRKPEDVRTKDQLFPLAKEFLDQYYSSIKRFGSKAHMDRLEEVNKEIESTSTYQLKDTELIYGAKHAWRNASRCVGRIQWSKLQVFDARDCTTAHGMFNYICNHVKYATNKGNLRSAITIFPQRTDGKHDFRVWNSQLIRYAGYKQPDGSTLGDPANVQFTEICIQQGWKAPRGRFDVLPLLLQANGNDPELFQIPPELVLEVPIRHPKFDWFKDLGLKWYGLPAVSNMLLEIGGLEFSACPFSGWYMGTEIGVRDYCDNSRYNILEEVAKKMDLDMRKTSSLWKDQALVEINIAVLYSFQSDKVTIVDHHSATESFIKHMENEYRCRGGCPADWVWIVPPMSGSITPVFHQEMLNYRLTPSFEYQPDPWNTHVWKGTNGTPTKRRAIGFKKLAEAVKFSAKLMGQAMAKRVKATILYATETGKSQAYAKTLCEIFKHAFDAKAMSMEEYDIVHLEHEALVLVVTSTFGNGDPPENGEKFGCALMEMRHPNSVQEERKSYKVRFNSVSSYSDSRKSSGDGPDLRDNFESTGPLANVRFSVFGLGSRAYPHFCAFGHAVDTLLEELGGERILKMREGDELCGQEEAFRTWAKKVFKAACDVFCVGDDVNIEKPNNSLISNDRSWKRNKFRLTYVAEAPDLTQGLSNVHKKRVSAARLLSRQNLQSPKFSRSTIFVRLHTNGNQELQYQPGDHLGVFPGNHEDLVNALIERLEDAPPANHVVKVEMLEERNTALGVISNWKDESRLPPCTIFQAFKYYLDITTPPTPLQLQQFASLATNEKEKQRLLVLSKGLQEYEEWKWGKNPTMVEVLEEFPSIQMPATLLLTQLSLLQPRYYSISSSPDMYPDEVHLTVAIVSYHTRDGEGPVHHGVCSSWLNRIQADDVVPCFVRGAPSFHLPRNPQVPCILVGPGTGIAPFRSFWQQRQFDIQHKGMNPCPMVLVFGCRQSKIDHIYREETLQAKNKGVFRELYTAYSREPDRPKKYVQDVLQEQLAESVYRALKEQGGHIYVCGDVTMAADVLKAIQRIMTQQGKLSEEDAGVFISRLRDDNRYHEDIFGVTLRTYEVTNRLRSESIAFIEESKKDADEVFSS
Sequence of Acetylcholinesterase (P22303 whole entry): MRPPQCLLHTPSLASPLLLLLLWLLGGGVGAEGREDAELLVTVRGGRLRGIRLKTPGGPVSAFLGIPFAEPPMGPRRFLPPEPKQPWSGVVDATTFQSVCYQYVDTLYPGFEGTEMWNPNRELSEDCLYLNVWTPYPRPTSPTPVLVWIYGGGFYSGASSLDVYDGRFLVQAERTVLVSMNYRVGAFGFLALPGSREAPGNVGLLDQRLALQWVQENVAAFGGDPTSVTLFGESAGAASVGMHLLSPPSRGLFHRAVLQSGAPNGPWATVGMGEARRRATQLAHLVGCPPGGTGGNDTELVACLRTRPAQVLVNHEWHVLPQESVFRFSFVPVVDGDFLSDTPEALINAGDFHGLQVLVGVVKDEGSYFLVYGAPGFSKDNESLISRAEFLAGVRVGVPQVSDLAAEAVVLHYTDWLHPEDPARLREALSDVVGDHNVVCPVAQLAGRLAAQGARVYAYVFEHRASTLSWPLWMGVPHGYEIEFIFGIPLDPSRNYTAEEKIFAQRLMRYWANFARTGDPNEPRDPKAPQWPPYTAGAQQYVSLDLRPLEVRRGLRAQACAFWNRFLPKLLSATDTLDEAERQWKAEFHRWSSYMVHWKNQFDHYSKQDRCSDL
Sequence of Cholinesterase (P06276 whole entry): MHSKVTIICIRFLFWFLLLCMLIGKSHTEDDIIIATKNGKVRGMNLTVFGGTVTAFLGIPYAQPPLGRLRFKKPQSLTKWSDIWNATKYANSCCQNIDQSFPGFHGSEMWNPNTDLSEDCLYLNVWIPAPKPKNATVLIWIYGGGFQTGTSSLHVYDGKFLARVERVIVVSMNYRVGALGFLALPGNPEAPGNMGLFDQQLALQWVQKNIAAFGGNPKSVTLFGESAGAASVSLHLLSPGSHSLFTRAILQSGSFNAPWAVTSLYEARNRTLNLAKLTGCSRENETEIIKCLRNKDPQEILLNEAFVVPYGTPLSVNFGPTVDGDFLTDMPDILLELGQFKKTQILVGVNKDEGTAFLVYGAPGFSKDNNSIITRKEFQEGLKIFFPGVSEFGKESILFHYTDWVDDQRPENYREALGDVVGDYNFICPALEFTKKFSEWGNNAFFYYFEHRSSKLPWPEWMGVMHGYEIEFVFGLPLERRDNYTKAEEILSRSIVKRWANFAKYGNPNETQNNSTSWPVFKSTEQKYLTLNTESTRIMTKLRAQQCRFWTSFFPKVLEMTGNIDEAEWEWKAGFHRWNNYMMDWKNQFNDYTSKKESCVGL
Description for Acetylcholinesterase: Inhibition of human recombinant AChE using acetylthiocholine iodide as substrate preincubated for 5 mins followed by substrate addition and measured over 2 mins by UV-Vis spectrophotometric analysis based Ellman's method
Description for CHO-K1: Cytotoxicity against CHOK1 cells assessed as reduction in cell viability incubated for 24 hrs by MTT assay
Description for HepG2: Cytotoxicity against human HepG2 cells assessed as reduction in cell viability incubated for 24 hrs by MTT assay
Description for Nitric oxide synthase 1: Inhibition of nNOS in Wistar rat cortical homogenates incubated for 30 mins

For `Cl.Cl.N[C@@H](Cc1c[nH]c2ccccc12)C(=O)NCCCNc1c2c(nc3ccccc13)CCCC2`, the IC50 at Nitric oxide synthase 1 worked out at 32 µM; with CHO-K1, 116 µM; at Cholinesterase, 0.04 µM; on Acetylcholinesterase, 580 nM. In addition, the permeability result in data set [1] was “Impermeable”.

Turning to `Cl.Cl.N[C@@H](Cc1c[nH]c2ccccc12)C(=O)NCCCCCCCCNc1c2c(nc3cc(Cl)ccc13)CCCC2`, the IC50 is 43 µM on Nitric oxide synthase 1, 65 µM in the data set with CHO-K1, 0.14 µM on Cholinesterase and 50 nM on Acetylcholinesterase. The permeability entry in data set [1] is “Permeable”.

Turning to `N[C@@H](Cc1c[nH]c2ccccc12)C(=O)NCCCNc1c2c(nc3cc(Cl)ccc13)CCCC2`, the 50% inhibitory concentration (IC50) was 31 µM at Nitric oxide synthase 1, 29 µM in the data set on CHO-K1, 0.14 µM against Cholinesterase and 70 nM against Acetylcholinesterase.

Molecule `N[C@@H](Cc1c[nH]c2ccccc12)C(=O)O` [TRYPTOPHAN] showed an IC50 in the data set with HepG2 of 17000 µM.

Turning to `Cl.Cl.N[C@@H](Cc1c[nH]c2ccccc12)C(=O)NCCCCCCNc1c2c(nc3ccccc13)CCCC2`, the half-inhibitory concentration (IC50) against Nitric oxide synthase 1 was found to be 33 µM; with CHO-K1, 90 µM; on Cholinesterase, 0.0039 µM; in the data set with HepG2, 26 µM; against Acetylcholinesterase it was 120 nM. Further, the permeability result in data set [1] is “Impermeable”.

As for `COc1ccc2nc3c(c(NCCCCCCCNC(=O)[C@@H](N)Cc4c[nH]c5ccccc45)c2c1)CCCC3`, the concentration for half-maximal inhibition (IC50) against Nitric oxide synthase 1 was 26 µM; in the data set with CHO-K1, 14 µM; against Cholinesterase, 0.078 µM; in the data set on HepG2, 5.6 µM; against Acetylcholinesterase, 980 nM.

As for `N[C@@H](Cc1c[nH]c2ccccc12)C(=O)NCCCCNc1c2c(nc3cc(Cl)ccc13)CCCC2`, the half-inhibitory concentration (IC50) stood at 26 µM against Nitric oxide synthase 1, 16 µM in the data set on CHO-K1, 0.12 µM on Cholinesterase and 62 nM at Acetylcholinesterase.

Regarding `COc1ccc2nc3c(c(NCCCNC(=O)[C@@H](N)Cc4c[nH]c5ccccc45)c2c1)CCCC3.Cl.Cl`, the 50% inhibitory concentration (IC50) on Nitric oxide synthase 1 was determined as 30 µM; with CHO-K1, 95 µM; on Cholinesterase, 1.8 µM; on Acetylcholinesterase, 1300 nM. The permeability entry in data set [1] is recorded as “Impermeable”.

Regarding `O=C(CCCCCNc1c2c(nc3cc(Cl)ccc13)CCCC2)NCCc1cc2ccccc2[nH]1`, the half-maximal inhibitory concentration (IC50) on Cholinesterase was found to be 0.18 µM; against Acetylcholinesterase, 0.73 nM. The permeability result in data set [1] is given as “Permeable”.

`Cl.Cl.N[C@@H](Cc1c[nH]c2ccccc12)C(=O)NCCNc1c2c(nc3ccccc13)CCCC2`: the IC50 came out at 33 µM on Nitric oxide synthase 1, 200 µM in the data set with CHO-K1, 0.056 µM against Cholinesterase and 730 nM against Acetylcholinesterase. Moreover, in data set [1], the permeability result is given as “Impermeable”.

As to `Cl.Cl.N[C@@H](Cc1c[nH]c2ccccc12)C(=O)NCCCCCCCNc1c2c(nc3ccccc13)CCCC2`, the IC50 against Nitric oxide synthase 1 was 32 µM; in the data set on CHO-K1 it was 248 µM; on Cholinesterase, 0.025 µM; against Acetylcholinesterase, 120 nM. Further, the permeability result in data set [1] is “Impermeable”.

For the molecule `N[C@@H](Cc1c[nH]c2ccccc12)C(=O)NCCCCCNc1c2c(nc3cc(Cl)ccc13)CCCC2`, the half-inhibitory concentration (IC50) turned out to be 27 µM against Nitric oxide synthase 1, 21 µM in the data set with CHO-K1, 0.074 µM at Cholinesterase and 76 nM on Acetylcholinesterase.

Take `COc1ccc2nc3c(c(NCCCCNC(=O)[C@@H](N)Cc4c[nH]c5ccccc45)c2c1)CCCC3.Cl.Cl`: the half-inhibitory concentration (IC50) turned out to be 27 µM against Nitric oxide synthase 1, 73 µM with CHO-K1, 0.52 µM at Cholinesterase and 12000 nM against Acetylcholinesterase. The permeability result in data set [1] is reported as “Impermeable”.

For `COc1ccc2nc3c(c(NCCNC(=O)[C@@H](N)Cc4c[nH]c5ccccc45)c2c1)CCCC3.Cl.Cl`, the IC50 stood at 19 µM against Nitric oxide synthase 1, 131 µM with CHO-K1, 0.48 µM at Cholinesterase and 5700 nM against Acetylcholinesterase. The permeability entry in data set [1] is “Impermeable”.

With `COc1ccc2nc3c(c(NCCCCCCCCNC(=O)[C@@H](N)Cc4c[nH]c5ccccc45)c2c1)CCCC3`, the half-maximal inhibitory concentration (IC50) was determined as 45 µM at Nitric oxide synthase 1, 43 µM in the data set with CHO-K1, 0.13 µM at Cholinesterase and 1300 nM against Acetylcholinesterase.

Consider `Cl.Cl.N[C@@H](Cc1c[nH]c2ccccc12)C(=O)NCCCCCCCNc1c2c(nc3cc(Cl)ccc13)CCCC2`, for which the half-maximal inhibitory concentration (IC50) at Nitric oxide synthase 1 amounted to 27 µM; in the data set on CHO-K1 it was 24 µM; against Cholinesterase, 0.052 µM; with HepG2 it was 6 µM; on Acetylcholinesterase, 19 nM. In addition, the permeability entry in data set [1] is on record as “Permeable”.

For `Cl.Cl.N[C@H](Cc1c[nH]c2ccccc12)C(=O)NCCCCCCNc1c2c(nc3cc(Cl)ccc13)CCCC2`, the 50% inhibitory concentration (IC50) at Nitric oxide synthase 1 turned out to be 26 µM; in the data set with CHO-K1, 15 µM; at Cholinesterase, 0.14 µM; in the data set on HepG2 it was 4.2 µM; against Acetylcholinesterase it was 6.9 nM. The permeability result in data set [1] was “Permeable”.

As for `Cl.Cl.NC(Cc1c[nH]c2ccccc12)C(=O)NCCCCCCNc1c2c(nc3cc(Cl)ccc13)CCCC2` (racemic), the IC50 at Nitric oxide synthase 1 came out at 33 µM; in the data set on CHO-K1, 21 µM; against Cholinesterase, 0.013 µM; in the data set with HepG2 it was 5.1 µM; on Acetylcholinesterase it was 7.4 nM. In addition, the permeability entry in data set [1] is listed as “Permeable”.

For `N[C@@H](Cc1c[nH]c2ccccc12)C(=O)NCCNc1c2c(nc3cc(Cl)ccc13)CCCC2`, the half-maximal inhibitory concentration (IC50) came out at 39 µM against Nitric oxide synthase 1, 26 µM in the data set on CHO-K1, 0.34 µM at Cholinesterase and 160 nM against Acetylcholinesterase.

Turning to `Cl.Cl.N[C@@H](Cc1c[nH]c2ccccc12)C(=O)NCCCCNc1c2c(nc3ccccc13)CCCC2`, the IC50 at Nitric oxide synthase 1 was found to be 18 µM; with CHO-K1, 34 µM; on Cholinesterase it was 0.123 µM; against Acetylcholinesterase, 1300 nM. The permeability result in data set [1] was “Permeable”.

In the case of `N[C@@H](Cc1c[nH]c2ccccc12)C(=O)NCCCCCCCCNc1c2c(nc3ccccc13)CCCC2`, the IC50 against Nitric oxide synthase 1 was 37 µM; with CHO-K1, 47 µM; at Cholinesterase, 0.064 µM; with HepG2, 9.3 µM; on Acetylcholinesterase it was 76 nM.

For `Cl.Cl.N[C@@H](Cc1c[nH]c2ccccc12)C(=O)NCCCCCNc1c2c(nc3ccccc13)CCCC2`, the concentration for half-maximal inhibition (IC50) at Nitric oxide synthase 1 stood at 26 µM; in the data set on CHO-K1 it was 83 µM; against Cholinesterase, 0.023 µM; against Acetylcholinesterase, 320 nM. The permeability entry in data set [1] was “Impermeable”.

On to `COc1ccc2nc3c(c(NCCCCCNC(=O)[C@@H](N)Cc4c[nH]c5ccccc45)c2c1)CCCC3.Cl.Cl`, for which the 50% inhibitory concentration (IC50) at Nitric oxide synthase 1 amounted to 26 µM; in the data set on CHO-K1 it was 46 µM; at Cholinesterase, 0.19 µM; at Acetylcholinesterase, 620 nM. Moreover, in data set [1], the permeability entry is “Impermeable”.

`CNC(=N)NCCC[C@H](N)C(=O)OC`: on Nitric oxide synthase 1, the 50% inhibitory concentration (IC50) came out at 4.1 µM.

Regarding `COc1ccc2nc3c(c(NCCCCCCNC(=O)[C@@H](N)Cc4c[nH]c5ccccc45)c2c1)CCCC3`, the IC50 against Nitric oxide synthase 1 was 27 µM; in the data set with CHO-K1 it was 23 µM; at Cholinesterase, 0.055 µM; in the data set on HepG2, 16 µM; against Acetylcholinesterase, 940 nM.

For the molecule `O=C(CCCCCCNc1c2c(nc3cccc(Cl)c13)CCCC2)NCCc1c[nH]c2ccccc12`, the IC50 was determined as 0.0078 µM on Cholinesterase and 0.008 nM against Acetylcholinesterase.

Consider `COc1ccc2nc3c(c(N)c2c1)CCCC3`, for which the IC50 with CHO-K1 is 63 µM; in the data set on HepG2, 120 µM. Also, the permeability entry in data set [1] is on record as “Permeable”.

`c1ccc2c(NCCCCCCCNc3c4c(nc5ccccc35)CCCC4)c3c(nc2c1)CCCC3`: the IC50 against Nitric oxide synthase 1 was 2.9 µM.

Take `Nc1c2c(nc3cc(Cl)ccc13)CCCC2`: the IC50 in the data set on CHO-K1 and in the data set with HepG2 was 71 µM each time. In addition, the permeability result in data set [1] is “Permeable”.
